Measured values: US20120195842A1, “ENHANCED PHOTOSTABILITY OF SUNCARE CO[…]” (priority 2008, published 2012)

Assay: Photostability of avobenzone in thin films of sunscreen compositions irradiated with solar simulated UVR
Assay type: physicochemical
Settings: menthyl anthranilate at all levels, composition with octisalate, homosalate and avobenzone, up to 4 hours
Procedure: To investigate its stabilizing effect of menthyl anthranilate on the photostability of avobenzone, menthyl anthranilate (meradimate) was incorporated into a fixed sunscreen composition at different levels. Thin film strips of each composition were then irradiated with solar simulated UVR for up to 4 hours as described in detail below. The compositions were then analyzed for the presence of avobenzone after a given period of time. • Formula compositions were prepared as follows: […]
Assessment of avobenzone's photostability was performed on four different compositions that differed only in the amount of menthyl anthranilate that were used in the formulation.
The photostability of avobenzone in each emulsion was assessed after exposure to 80 joules of UV radiation (which corresponds to about 4 hours of outside sun exposure at noon in Memphis, Tenn. in June) using the method described below. […] Even 1% menthyl anthranilate improved avobenzone's photostability by approximately 6% after 2 hours and by 17% after 4 hours of exposure. […]
Avobenzone's photostability was assessed by spreading known weights (14-18 mg) of emulsions onto glass microscope slides at an application density of about 2 mg/cm^2. […] UVR flux was measured using an OL 754 Spectroradiometer (Optronics laboratories, Inc., Orlando, Fla.) with an 8 inch integrating sphere. […]

## CC1CCC(C(C)C)C(OC(=O)c2ccccc2N)C1 (stereo not shown) [menthyl anthranilate]
  effect on photostability of avobenzone to ultraviolet radiation (UVR): improves photostability of avobenzone
